Patent US20050153932A1, “Controlled muscle relaxation” (priority 2003, published 2005)
Values joined by “and” are separate entries in the source; they are usually repeats but may differ in a detail not shown here. Equal entries are not always repeated. Where two headings read alike, the source gives them in different places.

Experiments:
[1] = system: M. gastrocnemius contractions; assay type: in vivo, guinea pig; details: for 1× ED90 dose: rocuronium i.v. bolus, established in each animal
Method: Male healthy mature guinea pigs were anesthetised with 30 mg·kg^−1 pentobarbitone and 900 mg·kg^−1 urethane i.p. The guinea pigs were artificially ventilated with room air (4.5-5.5 ml; 50-60 strokes/min). Catheters were placed in both jugular veins and a third catheter was placed in the carotid artery for continuous monitoring of arterial blood pressure and the taking of blood samples for blood gas analysis.
Heart rate was derived from the blood pressure signal.
Body temperature was maintained at 37-38° C. using an electrical heating pad.
The gastrocnemius muscle was dissected free from surrounding muscles and set up for recording twitch tension using a force transducer. A resting tension of 250-300 mN was applied to the muscle. A stimulation electrode was placed around the sciatic nerve, which was crushed centrally to the electrode to prevent reflex responses. The gastrocnemius muscle was stimulated indirectly via the sciatic nerve with rectangular pulses of 0.5 ms duration at 10 s (0.1 Hz) intervals at a supra maximal voltage using a Grass S88 Stimulator.
Animals were allowed to stabilise for […] before the start of the experiment. Firstly, the 1×ED90 blocking dose of rocuronium was established in each animal followed by complete spontaneous recovery of muscle contractions. After at least 30 minutes, all animals received a 10×ED90 blocking dose of rocuronium by intravenous bolus injection. One minute after bolus injection of rocuronium, the animals received either 2300 nmol·kg^−1 Org 25969 in saline or an equivalent volume of saline. Time to 25%, 50%, 75% and 90% recovery of twitch height was measured from the moment of injection of Org 25969 or saline, respectively.
Rocuronium bromide was dissolved in a pH 4.0 citric acid/phosphate/mannitol buffer. Org 25969 was dissolved in saline.

[2] = system: M. adductor pollicis contractions; assay: Rocuronium-induced block of M. adductor pollicis contractions (TOF stimulation) and effect of Org 25969 in anaesthetised Rhesus monkeys; assay type: in vivo, Rhesus monkey
Method: (§1) • T1: first twitch: amplitude of the first response to TOF stimulation, expressed as percentage of control T1 (%). • T4/T1 ratio: the ratio of T4 over T1 (within one TOF stimulus) expressed as decimals.
Female Rhesus monkeys were starved overnight and sedated with 10 mg·kg^−1 ketamine i.m., followed by i.v. injection of 25 mg·kg^−1 pentobarbitone sodium and subsequent infusion of 5-10 mg·kg^−1hr^−1. The animals were intubated and ventilated with a mixture of oxygen and nitrous oxide (2:3), using a ventilator. The expired CO2 level was measured using a capnograph. The tidal volume was adjusted to obtain a CO2 level of approximately 4.5%. Oxygen saturation was measured via a probe on the earlobe using a pulse oxymeter. Blood pressure was measured non-invasively with a cuff placed on the tail. The ECG was recorded and heart rate was measured. Rectal temperature was measured and body temperature was kept at 37-38° C. using a heating blanket. The right hand and right arm of the animal were fixed to a frame using surgical tape. The thumb was connected to a force transducer. A pre-load of 200-500 mN was applied. Two needle electrode were placed near the N. ulnaris and the nerve was stimulated with train-of-four pulses (pulse duration: 2 ms, train-frequency: 0.07 Hz). At the end of the experiment, the animals were allowed to recover from anesthesia. Appropriate recovery care was given to all animals. Two groups of monkeys were used to assess the reversal effects of Org 25969 against the neuromuscular blocking agents rocuronium (Esmeron®/Zemuron®) and vecuronium (Norcuron®). In the first group, animals initially received an intravenous bolus injection of a 1×ED90 dose of rocuronium bromide to induce neuromuscular block, followed by spontaneous recovery of the twitches. After complete recovery of the twitches, each group received a second and larger 5×ED90 dose of rocuronium followed by spontaneous recovery in one subgroup, whereas the other subgroup received an intravenous bolus dose of 1150 nmol·kg^−1 Org 25969 as soon as all twitches had disappeared. In the vecuronium groups of animals, the same protocol was used, but rocuronium was replaced by vecuronium. Rocuronium bromide and vecuronium bromide were dissolved in a citric acid/phosphate/mannitol buffer (pH 4.0). Org 25969 was dissolved in saline.

[3] = system: deep block induced by rocuronium; assay type: in vivo, human
From the text: A simple method of monitoring neuromuscular function is the train-of-four (TOF) technique using an acceleromyograph (TOF Watch®). Four electrical stimuli each 0.5 seconds apart (and for instance applied at 12-15 seconds intervals) are applied along the course of the ulnar nerve in the arm. Stimulation of the ulnar nerve causes contraction of the adductor pollicis muscle and movement of the thumb. Response can be noted visually or, more accurately, by placing a finger lightly on the surface of the hand over the muscle to feel the contraction. A baseline response check is done to ensure that there are four muscle twitches in response to the four stimuli. Normal baseline and full recovery is indicated by four twitches of equal strenght. As the number of acetylcholine receptors occupied by NMBAs increases, the number of twitches decreases, no twitches indicating total paralysis.
as §1
10 Volunteers, which were enrolled in a phase 1 trial with the objective to investigate the safety, pharmacokinetics and efficacy of Org 25969, received general anesthesia using i.v. administration of remifentanil followed by propofol (Target controlled Infusion—Diprifusor®) for induction and maintenance. After induction of anesthesia and set-up of the TOF-Watch®SX subjects received a i.v. bolus dose of 0.6 mg·kg^−1 rocuronium bromide (Esmeron®) given by hand over 5 seconds. Between the administration of rocuronium and the administration of Org 25969, a laryngeal mask was applied or tracheal intubation was performed to ventilate the subjects. At 3 minutes after rocuronium bromide administration (i.e. deep block) either placebo (commercially physiological salt solution, 0.9% sodium chloride) or Org 25969 (25 mg/ml) were given as a bolus dose into a fast running infusion in the forearm. Six dose levels of Org 25969 were given to these 10 volunteers. Neuromuscular block was measured using the TOF-Watch-SX® acceleromyograph for at least 90 minutes after administration of Org 25969 or placebo.

rocuronium-induced block = assay: Reversal of rocuronium-induced block in several animal models; assay type: in vivo; details: guinea pigs, cats and monkeys
[4] = Org 25969 with rocuronium; neutral pH and 25° C.; cited from earlier work
[5] = 10× ED90 rocuronium, 2300 nmol · kg^−1 Org 25969 i.v. one minute later (group 2), time from injection of Org 25969
[6] = 5× ED90 rocuronium + 1150 nmol · kg^−1 Org 25969 i.v.
[7] = 5× ED90 rocuronium in the subgroup given 1150 nmol · kg^−1 Org 25969 once all twitches had disappeared
[8] = 1× ED90 rocuronium i.v., spontaneous recovery, group 1
[9] = 1× ED90 rocuronium i.v., spontaneous recovery, group 2
[10] = 10× ED90 rocuronium i.v. bolus, group 1
[11] = 10× ED90 rocuronium i.v. bolus, group 2
[12] = 10× ED90 rocuronium, saline one minute later (group 1), time from injection of saline
[13] = 1× ED90 rocuronium, spontaneous recovery
[14] = 5× ED90 rocuronium, spontaneous recovery
[15] = 5× ED90 rocuronium, spontaneous recovery subgroup

Compound: O=C(O)CCSC[C@H]1O[C@@H]2O[C@H]3[C@H](O)[C@@H](O)[C@@H](O[C@H]4[C@H](O)[C@@H](O)[C@@H](O[C@H]5[C@H](O)[C@@H](O)[C@@H](O[C@H]6[C@H](O)[C@@H](O)[C@@H](O[C@H]7[C@H](O)[C@@H](O)[C@@H](O[C@H]8[C@H](O)[C@@H](O)[C@@H](O[C@H]9[C@H](O)[C@@H](O)[C@@H](O[C@H]1[C@H](O)[C@H]2O)O[C@@H]9CSCCC(=O)O)O[C@@H]8CSCCC(=O)O)O[C@@H]7CSCCC(=O)O)O[C@@H]6CSCCC(=O)O)O[C@@H]5CSCCC(=O)O)O[C@@H]4CSCCC(=O)O)O[C@@H]3CSCCC(=O)O [Org 25969, 6-per-deoxy-6-per-(2-carboxyethyl)thio-γ-cyclodextrin]
- 25-75% recovery index ([1]; 10× ED90 rocuronium, 2300 nmol · kg^−1 Org 25969 i.v. one minute later (group 2)): 1.3 min and 1.3 ± 0.4 min
- time to 25% recovery [1, 5]: 3.7 ± 0.4 min
- time to 90% recovery [1, 5]: 8.5 min and 8.5 ± 2.2 min
- effectiveness against rocuronium compared with vecuronium (in words) ([2]; 1150 nmol·kg^−1 Org 25969, 5×ED90 of either blocker): more effective against a 5×ED90 dose of rocuronium
- reversal of rocuronium-induced neuromuscular block (in words) ([2]; 1150 nmol·kg^−1 Org 25969 i.v. after 5×ED90 rocuronium): rapid reversal
- 0.50-0.90 TOF ratio interval [2, 6]: 4.0 ± 0.9 min
- 25-75% recovery index [2, 6]: 3.1 ± 0.8 min
- time to 25% recovery of T1 [2, 6]: 3.8 ± 0.7 min
- time to 90% recovery of T1 [2, 6]: 9.5 ± 1.9 min
- time to TOF ratio 0.90 [2, 6]: 7.9 ± 1.8 min
- block [2, 7]: 100.0 ± 0.0%
- onset time [2, 7]: 0.5 ± 0.1 min
- Time to TOF ratio 0.9 ([3]; Org 25969 0.1 mg · kg^−1 i.v. bolus 3 minutes after 0.6 mg·kg^−1 rocuronium bromide, individual volunteer): 43 min
- Time to TOF ratio 0.9 ([3]; Org 25969 0.5 mg · kg^−1 i.v. bolus 3 minutes after 0.6 mg·kg^−1 rocuronium bromide, individual volunteer): 71 min
- Time to TOF ratio 0.9 ([3]; Org 25969 1.0 mg · kg^−1 i.v. bolus 3 minutes after 0.6 mg·kg^−1 rocuronium bromide, individual volunteers): 23 min and 31 min
- Time to TOF ratio 0.9 ([3]; Org 25969 2.0 mg · kg^−1 i.v. bolus 3 minutes after 0.6 mg·kg^−1 rocuronium bromide, individual volunteers): 13 min and 17 min
- Time to TOF ratio 0.9 ([3]; Org 25969 4.0 mg · kg^−1 i.v. bolus 3 minutes after 0.6 mg·kg^−1 rocuronium bromide, individual volunteers): 2.5 min and 3.2 min
- Time to TOF ratio 0.9 ([3]; Org 25969 8.0 mg · kg^−1 i.v. bolus 3 minutes after 0.6 mg·kg^−1 rocuronium bromide, individual volunteers): ≤ 2 min and 1.0 min and 1.2 min
- re-curarisation ([3]; human, in vivo): no signs of re-curarisation
- reversal of rocuronium-induced block (rocuronium-induced block): rapidly reverse rocuronium-induced block
- association constant Ka [4]: about 15.10^6 M^−1

Compound: C=CC[N+]1([C@H]2C[C@H]3[C@@H]4CC[C@H]5C[C@H](O)[C@@H](N6CCOCC6)C[C@]5(C)[C@H]4CC[C@]3(C)[C@H]2OC(C)=O)CCCC1 [rocuronium, rocuronium bromide]
- 25-75% recovery index [1, 8]: 3.5 ± 0.4 min
- max recovery [1, 8]: 101.1 ± 1.3%
- max recovery after (time) [1, 8]: 15.1 ± 2.1 min
- time to 25% recovery [1, 8]: 5.1 ± 0.7 min
- time to 90% recovery [1, 8]: 10.7 ± 1.5 min
- 25-75% recovery index [1, 9]: 2.3 ± .5 min
- max recovery [1, 9]: 101.4 ± 2.8%
- max recovery after (time) [1, 9]: 12.5 ± 1.7 min
- time to 25% recovery [1, 9]: 3.8 ± 0.5 min
- time to 90% recovery [1, 9]: 8.7 ± 1.4 min
- onset time ([1]; 1× ED90 rocuronium i.v., group 1): 2.6 ± 0.3 min
- max block ([1]; 1× ED90 rocuronium i.v., group 1, Mean ± SEM, n = 6): 89.7 ± 2.4%
- onset time ([1]; 1× ED90 rocuronium i.v., group 2): 2.1 ± 0.3 min
- max block ([1]; 1× ED90 rocuronium i.v., group 2, Mean ± SEM, n = 6): 91.0 ± 2.5%
- max block [1, 10]: 100.0 ± 0.0%
- onset time [1, 10]: 2.0 ± 0.8 min
- max block [1, 11]: 100.0 ± 0.0%
- onset time [1, 11]: 1.7 ± 0.5 min
- 25-75% recovery index ([1]; 10× ED90 rocuronium, saline one minute later (group 1)): 15.9 min and 15.9 ± 4.0 min
- time to 25% recovery [1, 12]: 47.5 ± 7.0 min
- time to 90% recovery [1, 12]: 78.3 min and 78.3 ± 15.2 min
- 1× ED90 dose ([1]; group 1, Mean ± SEM, n = 6): 178 ± 22 nmol/kg
- 1× ED90 dose ([1]; group 2, Mean ± SEM, n = 6): 169 ± 15 nmol/kg
- onset time ([2]; 1× ED90 rocuronium): 1.2 ± 0.0 min
- 0.50-0.90 TOF ratio interval [2, 13]: 2.6 ± 0.2 min
- 25-75% recovery index [2, 13]: 3.3 ± 0.4 min
- time to 25% recovery of T1 [2, 13]: 4.5 ± 0.6 min
- time to 90% recovery of T1 [2, 13]: 9.6 ± 0.9 min
- time to TOF ratio 0.90 [2, 13]: 8.4 ± 0.9 min
- block ([2]; 1× ED90 rocuronium, Mean ± SEM, n = 4): 93.3 ± 1.9%
- 0.50-0.90 TOF ratio interval [2, 14]: 6.9 ± 0.8 min
- 25-75% recovery index [2, 14]: 6.0 ± 0.6 min
- time to 25% recovery of T1 [2, 14]: 18.5 ± 2.1 min
- time to 90% recovery of T1 [2, 14]: 27.7 ± 3.2 min
- time to TOF ratio 0.90 [2, 14]: 28.2 ± 3.4 min
- block [2, 15]: 100.0 ± 0.0%
- onset time [2, 15]: 0.7 ± 0.2 min
- Time to TOF ratio 0.9 ([3]; 0.6 mg·kg^−1 rocuronium bromide i.v., placebo at 3 minutes, time from placebo, n = 10): 35 to 69 min
